Test results from patent US20250144067A1, “PERSONALIZED STARVATION THERAPY FOR CANCER” (Faeth Therapeutics, Inc., priority 2021, published 2025).
Structures can show the parent of a compound that is named as a salt.

Legend:
[1] = tested on: NCI-H292 lung cancer cells; assay: FDA drug screening, complete media vs cholesterol-free media without statin (TABLE 1); assay type: cell-based, human
[2] = tested on: NCI-H292 lung cancer cells; assay: FDA drug screening, complete media vs cholesterol-free media with simvastatin (TABLE 2); assay type: cell-based, human; conditions: for Cholesterol-free media + simvastatin (0.04 μM) / Complete Media: NCI-H292 cells
[3] = NCI-H292 cells, cholesterol-free media without statin
[4] = complete vs cholesterol-free media, greater than 0 enhanced anti-cancer activity, about 0 neutral, below 0 antagonists
[5] = cholesterol-free media with simvastatin 0.04 μM, cell growth value in FDA drug screen
[6] = complete media, cell growth value in FDA drug screen
[7] = complete media minus cholesterol-free media + simvastatin, >0 enhanced anti-cancer activity, about 0 neutral, <0 antagonist
[8] = Complete minus Cholesterol-free, >0 enhanced anti-cancer activity, about 0 neutral, <0 antagonist
[9] = FDA drug library screen, cholesterol-free media with simvastatin 0.04 μM
[10] = FDA drug library screen, complete media
[11] = NCI-H292 cells, cholesterol-free media without statin, FDA drug library screen
[12] = NCI-H292 cells, complete media, FDA drug library screen
[13] = complete vs cholesterol-free media, >0 enhanced anti-cancer activity, about 0 neutral, <0 antagonist
[14] = complete vs cholesterol-free media, […]
[15] = complete media vs cholesterol-free media + simvastatin (0.04 μM), […]
[16] = NCI-H292 cells in cholesterol-free media without statin
[17] = NCI-H292 cells in complete media
[18] = drug in cholesterol-free media with simvastatin 0.04 μM
[19] = complete media vs cholesterol-free media + simvastatin (0.04 μM), >0 enhanced anti-cancer activity, about 0 neutral, <0 antagonist
[20] = FDA library drug in cholesterol-free media with simvastatin 0.04 μM
[21] = FDA library drug in complete media

| SMILES | Cholesterol-free [1, 3] | Complete ([1]; NCI-H292 cells, complete media) | Difference [1, 8] | Cholesterol-free media + simvastatin (0.04 μM) [2, 9] | Complete Media [2, 10] | Cholesterol-free [1, 11] | Complete [1, 12] | Difference [2, 19] | further results |
| --- | --- | --- | --- | --- | --- | --- | --- | --- | --- |
| CC(C)(C(=O)c1cccnc1)c1cccnc1 [Metyrapone] | 1.096 | 0.7386 |  |  |  |  |  |  | Difference [1, 4]: −0.36; Cholesterol-free media + simvastatin (0.04 μM) [2, 5]: 0.9563; Complete Media [2, 6]: 1.066; Difference [2, 7]: 0.11 |
| CCCCC(F)(F)[C@@]1(O)CC[C@H]2[C@@H](CC(=O)[C@@H]2CCCCCCC(=O)O)O1 [Lubiprostone] | 1.064 | 0.7833 | −0.28 | 1.061 | 1.267 |  |  |  | Difference [2, 7]: 0.21 |
| CCc1nc(C(N)=O)c(Nc2ccc(N3CCC(N4CCN(C)CC4)CC3)c(OC)c2)nc1NC1CCOCC1 [Gilteritinib] |  |  |  |  |  | 0.2961 | 0.7497 |  | Difference [1, 13]: 0.45; Cholesterol-free media + simvastatin (0.04 μM) ([2]; cholesterol-free media with simvastatin 0.04 μM, FDA drug library screen (TABLE 2)): 0.4196; Complete Media ([2]; complete media, FDA drug library screen (TABLE 2)): 0.3685; Difference ([2]; complete media minus cholesterol-free media + simvastatin (0.04 μM), >0 enhanced anti-cancer activity, about 0 neutral, <0 antagonist): −0.05 |
| NCCCC[C@H](N)C(=O)O.O=C(O)COc1nn(Cc2ccccc2)c2ccccc12 [Bendazac L-Lysine] |  |  |  | 1.079 | 0.922 | 0.6107 | 1.115 |  | Difference [1, 14]: 0.50; Difference [2, 15]: −0.16 |
| COC(=O)c1ccccc1O [Methyl Salicylate] | 0.9648 | 0.722 | −0.24 |  |  |  |  |  | Cholesterol-free media + simvastatin (0.04 μM) [2, 5]: 0.8236; Complete Media [2, 6]: 0.8959; Difference [2, 7]: 0.07 |
| C=CCN1C[C@H](C(=O)N(CCCN(C)C)C(=O)NCC)C[C@@H]2c3cccc4[nH]cc(c34)C[C@H]21 [Cabergoline] |  |  |  |  |  |  |  | −0.24 | Difference ([1]; Complete minus Cholesterol-free, greater than 0 enhanced anti-cancer activity, about 0 neutral, below 0 antagonists): −0.59; Cholesterol-free [1, 16]: 1.769; Complete [1, 17]: 1.184; Cholesterol-free media + simvastatin (0.04 μM) [2, 18]: 1.138; Complete Media ([2]; drug in complete media): 0.8998 |
| CC[C@H]1OC(=O)[C@H](C)[C@@H](O[C@H]2C[C@@](C)(OC)[C@@H](O)[C@H](C)O2)[C@H](C)[C@@H](O[C@@H]2O[C@H](C)C[C@H](N(C)C)[C@H]2O)[C@](C)(O)C[C@@H](C)C(=O)[C@H](C)[C@H]2OC(=O)O[C@@]21C [Davercin] |  |  |  | 1.064 | 0.9657 | 0.5403 | 0.9622 |  | Difference [1, 14]: 0.42; Difference [2, 15]: −0.10 |
| Cc1ccc(C(C)C)cc2c(C)ccc1-2 [Guaiazulene] | 1.231 | 1.025 | −0.21 |  |  |  |  | −0.24 | Cholesterol-free media + simvastatin (0.04 μM) [2, 18]: 1.916; Complete Media ([2]; drug in complete media): 1.674 |
| CC1=C2[C@H]3OC(=O)[C@@H](C)[C@@H]3CC[C@@]2(C)C=CC1=O [Santonin] |  |  |  |  |  |  |  |  | Difference ([1]; Complete minus Cholesterol-free, […]): −0.53; Cholesterol-free [1, 16]: 1.389; Complete [1, 17]: 0.8572; Cholesterol-free media + simvastatin (0.04 μM) [2, 18]: 1.229; Complete Media ([2]; drug in complete media): 1.004; Difference [2, 15]: −0.23 |
| Cn1c([N+](=O)[O-])cnc1COC(N)=O [Ronidazole] | 1.54 | 1.069 |  | 0.9748 | 1.335 |  |  |  | Difference [1, 4]: −0.47; Difference [2, 7]: 0.36 |
| CO/N=C(\C(=O)N[C@@H]1C(=O)N2C(C(=O)[O-])=C(C[n+]3ccn4ncccc43)CS[C@H]12)c1nsc(N)n1 [Cefozopran (hydrochloride)] |  |  | −0.04 |  |  | 1.014 | 0.9759 | −0.35 | Cholesterol-free media + simvastatin (0.04 μM) [2, 20]: 1.89; Complete Media [2, 21]: 1.537 |
| O=C(O)c1ccc2nc(-c3cc(Cl)cc(Cl)c3)oc2c1 [Tafamidis] |  |  |  |  |  | 0.399 | 0.8565 | −0.37 | Difference [1, 13]: 0.46; Cholesterol-free media + simvastatin (0.04 μM) [2, 20]: 1.307; Complete Media [2, 21]: 0.9388 |
| CCC1=C(C)CN(C(=O)NCCc2ccc(S(=O)(=O)NC(=O)N[C@H]3CC[C@H](C)CC3)cc2)C1=O [Glimepiride] | 1.246 | 0.8316 |  |  |  |  |  | −0.21 | Difference [1, 4]: −0.41; Cholesterol-free media + simvastatin (0.04 μM) [2, 18]: 0.9904; Complete Media ([2]; drug in complete media): 0.7847 |
| C[C@H]1C[C@@H]2[C@H]([C@@H](O)C[C@@]3(C)[C@H]2CC[C@]3(O)C(=O)COC(=O)CCC(=O)[O-])[C@@]2(C)C=CC(=O)C=C12.[Na+] |  |  | 0.02 | 0.7536 | 0.682 | 0.6071 | 0.6313 | −0.07 |  |
